From patent publication US20240398781A1, “SPIROCYCLIC CYCLIC MODULATORS OF CHOLESTEROL BIOSYNTHESIS AND THEIR USE FOR PROMOTING REMYELINATION” (GENENTECH, INC., priority 2021, published 2024)

Assays:
[1] = test system: EBP (zymostenol accumulation in EpiSC-derived OPCs); assay: GC/MS-based sterol profiling, zymostenol accumulation in OPCs; type: cell-based, mouse; conditions: Mus musculus, 24 h, EpiSC-derived OPCs, 24 hr treatment, 8 doses from 0.15 nM to 333 nM; read-out: Zymostenol GCMS EC50
Method: To assess effects of treatments on OPCs, all treatments were assayed in two or more independent platings of epiblast stem cell-derived OPCs ([…]-derived OPCs were obtained using in vitro differentiation protocols and culture conditions described previously (Najm et al, 2011, Nature Methods). OPCs were expanded and frozen down in aliquots. OPCs were thawed into growth conditions for at least one passage before use in further assays. Sterols were monitored using a modified Folch wash protocol (Hubler et al, 2018, Nature). EpiSC-derived OPCs were plated at 100,000 cells per well in PO- and laminin-coated 96-well plates in N2B27 media without growth factors. After 24 hours, cells were rinsed with saline and plates were frozen. Cholesterol-d7 standard was then added to each well before drying under nitrogen stream and derivatization with 55 μl of bis(trimethylsilyl) trifluoroacetamide. After derivatization, 2 μl were analyzed by gas chromatography/mass spectrometry using an Agilent 5973 Network Mass Selective Detector equipped with a 6890 gas chromatograph system and a HP-5MS capillary column (30 m×0.25 mm×0.25 mm). Samples were analyzed in full scan mode using electron impact ionization; ion fragment peaks were integrated to calculate sterol abundance, and quantitation was relative to cholesterol-d7. […] All standards were obtained from Avanti Polar Lipids unless otherwise indicated. Calibration curves were generated by injecting varying concentrations of sterol standards and maintaining a fixed amount of cholesterol-D7. For normalized zymostenol accumulation results, the total amount of zymostenol measured after drug treatment was divided by the total amount of zymostenol accumulated after 24 hr treatment with 100 nM positive control reference.

[2] = molecular target: human emopamil binding protein and human 7-dehydrocholesterol reductase co-expressing cells (hEBP-DHCR7 membrane) (Homo sapiens (Human), UniProt Q15125); assay: Radioligand filter binding assay on hEBP-DHCR7 membrane; conditions: [3H]-(S)-6-(2-Methyl-3-(6-(trifluoromethyl)pyridin-3-yl)propyl)-2-thia-6-azaspiro[3.4]octane 2,2-dioxide radioligand, HEK293 membrane co-expressing hEBP and hDHCR7
Chain of human emopamil binding protein and human 7-dehydrocholesterol reductase co-expressing cells (hEBP-DHCR7 membrane) (Q15125 whole entry): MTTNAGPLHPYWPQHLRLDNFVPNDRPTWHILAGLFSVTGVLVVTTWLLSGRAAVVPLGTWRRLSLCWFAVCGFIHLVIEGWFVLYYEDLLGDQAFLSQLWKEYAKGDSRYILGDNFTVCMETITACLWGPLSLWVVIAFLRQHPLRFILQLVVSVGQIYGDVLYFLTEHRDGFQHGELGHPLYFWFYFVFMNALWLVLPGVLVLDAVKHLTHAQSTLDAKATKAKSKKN
Method: Membrane Preparation: human emopamil binding protein and human 7-dehydrocholesterol reductase co-expressing cells were generated by transient transfecting host human embryonic kidney (HEK) 293 cells with 2 DNA constructs containing each protein's coding sequence. Cells were suspension cultured at 37° C. with 5% CO2 in […] 293 Expression Medium (Thermofisher). Whole cell membrane was prepared by harvesting the cell pellet, adding cold membrane buffer (50 mM Tris, pH7.5, lx Roche COMPLETE EDTA-free protease inhibitor cocktail) 10 times volume of the cell pellets weight, lysing cell pellet on ice by using Dounce homogenizer, spinning at 200 g 4° C. for 15 min, collecting supernatant and spinning again at 25000 g 4° C. for 50 min, transferring pellet to Dounce homogenizer, re-suspending pellet by homogenizing in membrane buffer on ice to reach ˜25 mg/mL, then keeping whole cell membrane aliquots at −80° C.
Compounds were prepared in a 96-well U bottom plate using an Echo550 machine and 10 mM compound DMSO stock solution, followed by an 8-dose 5-fold serial dilutions protocol with final testing compound concentration ranging from 0.06 to 5000 nM, with DMSO back fill to 100 nL/well and n=2. […] The UniFilter-96 GF/B plates were pre-treated by adding 50 μl/well of 0.3% (v/v) PEI to UniFilter-96 GF/B plates. The plates were sealed and incubated at 4° C. for 3 hrs. Then, the plates were washed with ice-cold assay buffer 3 times. The radioligand binding assay was prepared by adding assay buffer diluted hEBP-DHCR7 membrane at 66.7 μg/ml×150 μl/well into the 96-well compound plate to reach 10 μg membrane per well. Then, the assay buffer diluted [3H]—(S)-6-(2-Methyl-3-(6-(trifluoromethyl)pyridin-3-yl)propyl)-2-thia-6-azaspiro[3.4] octane 2,2-dioxide was added at 25 nM×50 μl/well. Following this, the plate was centrifuged at 1000 rpm for 30 secs. The plate was then sealed and agitated at 600 rpm at 22° C. for 5 min, and then incubated at 22° C. for 3 hrs. The incubation was stopped by transferring the binding solution to the pre-treated UniFilter-96 GF/B plate, vacuum filtrated, and then washed four times with ice-cold assay buffer. Following this, the plates were dried at 37° C. for 45 min. The plates were then sealed at the bottom. 40 μl/well of scintillation cocktail was added to the plates. A MicroBeta2 microplate counter was then used to read the plate and analyze the data. For reference and test compounds, the results are expressed as % Inhibition, using the normalization equation: N=100−100×(U−C2)/(C1−C2), where U is the unknown value, C1 is the average of high controls, and C2 is the average value of low controls. The IC50 was determined by fitting percentage of inhibition as a function of compound concentrations with Hill equation using XLfit. Results are expressed as hEBP-DHCR7 Ki (uM) in Table 4. Ki was calculated as described above. The asterix (*) indicates an isolated isomer or isolated group of isomers, but that the stereochemistry has not been assigned.

SMILES | EC50 [1] [nM] | Ki [2] [nM]
CC(C)[C@H]1CC(N2CCC3(C2)CS(=O)(=O)C3)CCN1c1ccc(C(F)(F)F)nc1 (stereo in doubt) [82C*, 6-((2R,4S)-2-isopropyl-1-(6-(trifluoromethyl)pyridin-3-yl)piperidin-4-yl)-2-thia-6-azaspiro[3.4]octane 2,2-dioxide] | > 330 | 36
CC(C)[C@@H]1C[C@@H](N2CCC3(C2)CS(=O)(=O)C3)CCN1c1ccc(C(F)(F)F)nc1 (single isomer, unassigned) [82B*] | 19 | 46
CC(C)n1nc(C(F)(F)F)cc1[C@H]1CCC[C@H](N2CCC3(C2)CS(=O)(=O)C3)C1 (single isomer, unassigned) [61D*] | > 330 | 344
CC(C)C1C[C@H](N2CCC3(C2)CS(=O)(=O)C3)CCN1c1ccc(C(F)(F)F)nc1 (stereo in doubt) [82A*, 6-((2R,4R)-2-Isopropyl-1-(6-(trifluoromethyl)pyridin-3-yl)piperidin-4-yl)-2-thia-6-azaspiro[3.4]octane 2,2-dioxide] | 280 | 89
O=S1(=O)CC2(CCN([C@H]3CCC[C@@H](c4ccc(C(F)(F)F)nc4)C3)C2)C1 (single isomer, unassigned) [54C*] | > 330 | 347
CC(C)(C)n1nc(C(F)(F)F)cc1[C@H]1CC[C@H](N2CCC3(CC2)CS(=O)(=O)C3)CC1 [Compound 85A, 7-((1r,4r)-4-(1-(tert-Butyl)-3-(trifluoromethyl)-1H-pyrazol-5-yl)cyclohexyl)-2-thia-7-azaspiro[3.5]nonane 2,2-dioxide] | 8.1 | 15
O=S1(=O)CC2(CCN([C@H]3CC[C@H](c4ccc(C(F)F)nc4)CC3)C2)C1 [Compound 67, 6-((1r,4r)-4-(6-(difluoromethyl)pyridin-3-yl)cyclohexyl)-2-thia-6-azaspiro[3.4]octane 2,2-dioxide] | 30 | 180
O=S1(=O)CC2(CCN([C@H]3CCCN(c4ccc(C(F)(F)F)nc4)C3)C2)C1 (single isomer, unassigned) [66B*] | 12 | 61
CC(C)n1nc(C(F)(F)F)cc1[C@H]1CC[C@H](N2CCC[C@@]3(CCS(=O)(=O)C3)C2)CC1 (single isomer, unassigned) [91B*] | 60 | 310
CC(C)n1nc(C(F)(F)F)cc1[C@H]1CCC[C@@H](N2CCC3(C2)CS(=O)(=O)C3)C1 (single isomer, unassigned) [61B*] | 100 | 23
CC(C)n1nc(C(F)(F)F)cc1[C@H]1CC[C@@H](N2CCC[C@]3(CCS(=O)(=O)C3)C2)CC1 (single isomer, unassigned) [91C*] | 8.2 | –
CC(C)n1nc(C(F)(F)F)cc1[C@H]1CC[C@H](N2CCC[C@]3(CCS(=O)(=O)C3)C2)CC1 (single isomer, unassigned) [91D*] | 50 | –

The next lines start with the values.

EC50 [1] [nM] | Ki [2] [nM] | SMILES
12 | 75 | O=S1(=O)CC2(CCN([C@H]3CC[C@H](c4cncc(C(F)(F)F)c4)CC3)C2)C1 [Compound 63A, 6-((1r,4r)-4-(5-(trifluoromethyl)pyridin-3-yl)cyclohexyl)-2-thia-6-azaspiro[3.4]octane 2,2-dioxide]
62 | – | O=S1(=O)CC[C@]2(CCCN([C@H]3CC[C@@H](c4ccc(C(F)(F)F)nc4)CC3)C2)C1 (single isomer, unassigned) [71C*]
42 | – | O=S1(=O)CC[C@]2(CCCN([C@H]3CC[C@H](c4ccc(C(F)(F)F)cn4)CC3)C2)C1 (single isomer, unassigned) [68D*]
12 | – | O=S1(=O)CC2(CCCN([C@H]3CC[C@H](c4ccnc(C(F)(F)F)c4)CC3)C2)C1 [Compound 93, 6-((1r,4r)-4-(2-(Trifluoromethyl)pyridin-4-yl)cyclohexyl)-2-thia-6-azaspiro[3.5]nonane 2,2-dioxide]
250 | 115 | O=S1(=O)CC2(CCN([C@H]3CC[C@@H](c4cnc(C(F)(F)F)nc4)CC3)C2)C1 [Compound 94B, 6-((1s,4s)-4-(2-(trifluoromethyl)pyrimidin-5-yl)cyclohexyl)-2-thia-6-azaspiro[3.4]octane 2,2-dioxide]
85 | 21 | O=S1(=O)CC2(CCN([C@H]3CC[C@@H](c4ccnc(C(F)(F)F)c4)CC3)C2)C1 [Compound 60B, 6-((1s,4s)-4-(2-(trifluoromethyl)pyridin-4-yl)cyclohexyl)-2-thia-6-azaspiro[3.4]octane 2,2-dioxide]
59 | 26 | O=S1(=O)CC2(CCN([C@H]3CC[C@@H](c4cnc(C(F)(F)F)c(F)c4)CC3)C2)C1 [Compound 72B, 6-((1s,4s)-4-(5-fluoro-6-(trifluoromethyl)pyridin-3-yl)cyclohexyl)-2-thia-6-azaspiro[3.4]octane 2,2-dioxide]
81 | 230 | O=S1(=O)CC2(CCN([C@H]3CC[C@H](c4cnc(C(F)(F)F)nc4)CC3)C2)C1 [Compound 94A, 6-((1r,4r)-4-(2-(Trifluoromethyl)pyrimidin-5-yl)cyclohexyl)-2-thia-6-azaspiro[3.4]octane 2,2-dioxide]
280 | – | O=S1(=O)CC[C@@]2(CCCN([C@H]3CC[C@H](c4ccc(C(F)(F)F)nc4)CC3)C2)C1 (single isomer, unassigned) [71B*]
61 | 21 | O=S1(=O)CC2(CCN([C@@H]3CCC[C@H](c4ccc(C(F)(F)F)nc4)C3)C2)C1 (single isomer, unassigned) [54A*]
5.9 | 14 | Cc1nc(C(F)(F)F)ccc1[C@H]1CC[C@@H](N2CCC3(C2)CS(=O)(=O)C3)CC1 [Compound 51B, 6-((1s,4s)-4-(2-methyl-6-(trifluoromethyl)pyridin-3-yl)cyclohexyl)-2-thia-6-azaspiro[3.4]octane 2,2-dioxide]
> 330 | – | O=S1(=O)CC[C@]2(CCCN([C@H]3CC[C@H](c4ccc(C(F)(F)F)nc4)CC3)C2)C1 (single isomer, unassigned) [71D*]
36 | – | O=S1(=O)CC2(CCN([C@H]3CC[C@H](c4ccnc(C(F)(F)F)c4Cl)CC3)C2)C1 [Compound 92A, 6-((1r,4r)-4-(3-Chloro-2-(trifluoromethyl)pyridin-4-yl)cyclohexyl)-2-thia-6-azaspiro[3.4]octane 2,2-dioxide]
190 | – | O=S1(=O)CC[C@@]2(CCCN([C@H]3CC[C@@H](c4ccc(C(F)(F)F)cn4)CC3)C2)C1 (single isomer, unassigned) [68A*]
5.2 | – | O=S1(=O)CC2(CCN([C@H]3CC[C@@H](c4ccnc(C(F)(F)F)c4Cl)CC3)C2)C1 [Compound 92B, 6-((1s,4s)-4-(3-chloro-2-(trifluoromethyl)pyridin-4-yl)cyclohexyl)-2-thia-6-azaspiro[3.4]octane 2,2-dioxide]
> 330 | – | O=S1(=O)CC[C@]2(CCCN([C@H]3CC[C@@H](c4ccc(C(F)(F)F)cn4)CC3)C2)C1 (single isomer, unassigned) [68C*]
